PubChem BioAssay (NCI)
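Results reflect a 48-hour exposure of cells in 96-well plates to compound at five concentrations. At the GI50, growth is halved. TGI marks complete inhibition of growth.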

Tests used:
Assay in all cases: NCI anticancer screen, dose series, 48 h; in the data active = GI50 below about 0.43 µM; inactive = the rest
[1] = tested on: HL-60(TB) leukemia
[2] = tested on: NCI-H226 lung
[3] = tested on: NCI-H522 lung
[4] = tested on: M14 melanoma
[5] = tested on: SNB-75 CNS
[6] = tested on: SR leukemia
[7] = tested on: HCT-15 colon
[8] = tested on: A549 NSCLC
[9] = tested on: CCRF-CEM leukemia
[10] = tested on: K-562 leukemia
[11] = tested on: SF-295 CNS
[12] = tested on: KM12 colon
[13] = tested on: MOLT-4 leukemia
[14] = tested on: HCT-116 colon
[15] = tested on: HCC-2998 colon
[16] = tested on: OVCAR-5 ovarian
[17] = tested on: PC-3 prostate
[18] = tested on: TK-10 renal
[19] = tested on: HS 578T breast
[20] = tested on: IGROV1 ovarian
[21] = tested on: SK-OV-3 ovarian
[22] = tested on: OVCAR-3 ovarian
[23] = tested on: RXF 393 renal
[24] = tested on: U251 CNS
[25] = tested on: OVCAR-8 ovarian
[26] = tested on: COLO 205 colon
[27] = tested on: NCI/ADR-RES ovarian
[28] = tested on: NCI-H460 lung
[29] = tested on: NCI-H23 lung
[30] = tested on: 786-0 renal
[31] = tested on: T-47D breast
[32] = tested on: HOP-92 NSCLC
[33] = tested on: SN12C renal
[34] = tested on: SK-MEL-28 melanoma
[35] = tested on: EKVX NSCLC
[36] = tested on: MDA-MB-435
[37] = tested on: MALME-3M melanoma
[38] = tested on: SK-MEL-2 melanoma
[39] = tested on: CAKI-1 renal
[40] = tested on: UO-31 renal
[41] = tested on: SK-MEL-5 melanoma
[42] = tested on: UACC-62 melanoma
[43] = tested on: A498 renal
[44] = tested on: HOP-62 NSCLC
[45] = tested on: MDA-MB-231 breast
[46] = tested on: BT-549 breast
[47] = tested on: SF-539 CNS
[48] = tested on: SNB-19 CNS
[49] = tested on: OVCAR-4 ovarian
[50] = tested on: RPMI-8226 leukemia
[51] = tested on: MCF7 breast
[52] = tested on: DU-145 prostate
[53] = tested on: ACHN renal
[54] = tested on: LOX IMVI melanoma
[55] = tested on: SW-620 colon
[56] = tested on: SF-268 CNS

COc1ccc([C@H]2C(=O)N(c3cc(OC)c(OC)c(OC)c3)[C@@H]2c2ccc(OC)c(O)c2)cc1
active: GI50 [1] 21.6 nM | GI50 [2] 27.4 nM | GI50 [3] 12.4 nM | GI50 [4] 34.1 nM | GI50 [6] 25.8 nM | GI50 [7] 30.5 nM | GI50 [8] 40.1 nM | GI50 [9] 30.8 nM | GI50 [10] 27.6 nM | GI50 [11] 29.8 nM | GI50 [12] 44.5 nM | GI50 [13] 46.4 nM | GI50 [14] 29.2 nM | GI50 [15] 36.1 nM | GI50 [16] 45.9 nM | GI50 [17] 50 nM | GI50 [19] 42.2 nM | GI50 [20] 42.4 nM | GI50 [21] 42.2 nM | GI50 [22] 63.5 nM | GI50 [23] 46.7 nM | GI50 [24] 32.2 nM | GI50 [25] 29.9 nM | GI50 [26] 30.3 nM | GI50 [27] 19.5 nM | GI50 [28] 36.5 nM | GI50 [29] 37.8 nM | GI50 [30] 32.4 nM | GI50 [33] 43.5 nM | GI50 [35] 40.1 nM | GI50 [36] 29.7 nM | GI50 [37] 35.7 nM | GI50 [38] 50.2 nM | GI50 [39] 49 nM | GI50 [40] 72 nM | GI50 [41] 20.2 nM | GI50 [42] 44.8 nM | GI50 [44] 56.2 nM | GI50 [45] 31.8 nM | GI50 [46] 58 nM | GI50 [47] 20.4 nM | GI50 [48] 45.4 nM | GI50 [50] 38.7 nM | GI50 [51] 32.7 nM | GI50 [52] 52.7 nM | GI50 [53] 53.5 nM | GI50 [54] 26.1 nM | GI50 [55] 51.6 nM
51.3 nM: TGI [27]
26.7 µM: TGI [42]
1850 nM: TGI [36]
42.9 nM: TGI [41]
69.9 µM: TGI [53]
22.7 µM: TGI [11]
82.1 µM: TGI [54]
49.1 nM: TGI [3]
> 100 µM: TGI [5] | TGI [6] | TGI [7] | TGI [8] | TGI [9] | TGI [10] | TGI [12] | TGI [13] | TGI [14] | TGI [16] | TGI [17] | TGI [18] | TGI [19] | TGI [20] | TGI [21] | TGI [22] | TGI [24] | TGI [25] | TGI [30] | TGI [31] | TGI [33] | TGI [34] | TGI [35] | TGI [38] | TGI [39] | TGI [43] | TGI [44] | TGI [45] | TGI [48] | TGI [49] | TGI [51] | TGI [52] | TGI [55] | TGI [56]
52.7 nM: TGI [1]
17.3 µM: TGI [50]
17.5 µM: TGI [4]
41.2 µM: TGI [23]
72.2 µM: TGI [29]
89.8 nM: TGI [2]
53.7 nM: TGI [47]
inactive: GI50 [5] 861 nM | GI50 [18] 16.2 µM | GI50 [31] 27.3 µM | GI50 [32] 1190 nM | GI50 [34] 4.03 µM | GI50 [43] 33.6 µM | GI50 [49] 17.1 µM | GI50 [56] 1410 nM
78.3 µM: TGI [32]
83 nM: TGI [26]
34.5 µM: TGI [37]
38.2 µM: TGI [40]
24.8 µM: TGI [28]
3.83 µM: TGI [46]
15.5 µM: TGI [15]
